Results on one compound are retold here after publication PMC5835287, “Synthesis, Characterization, and BSA-Binding Studies of Novel Sulfonated Zinc-Triazine Complexes” (Bioinorganic Chemistry and Applications, 2018).

In this assay the target is T1, bovine serum albumin (BSA) (Bos taurus, UniProt P02769).
T1 construct: gene ALB
Put plainly: UV absorbance titration at […] nm (binding constant Kb from […]/(A-A0) vs […]/[C] plot). As to conditions: read-out: UV absorbance titration at 280 nm (binding constant Kb from 1/(A-A0) vs 1/[C] pl) (converted).

Where a name gives a salt, the structure may show the parent alone.

T1 sequence (P02769 25-607): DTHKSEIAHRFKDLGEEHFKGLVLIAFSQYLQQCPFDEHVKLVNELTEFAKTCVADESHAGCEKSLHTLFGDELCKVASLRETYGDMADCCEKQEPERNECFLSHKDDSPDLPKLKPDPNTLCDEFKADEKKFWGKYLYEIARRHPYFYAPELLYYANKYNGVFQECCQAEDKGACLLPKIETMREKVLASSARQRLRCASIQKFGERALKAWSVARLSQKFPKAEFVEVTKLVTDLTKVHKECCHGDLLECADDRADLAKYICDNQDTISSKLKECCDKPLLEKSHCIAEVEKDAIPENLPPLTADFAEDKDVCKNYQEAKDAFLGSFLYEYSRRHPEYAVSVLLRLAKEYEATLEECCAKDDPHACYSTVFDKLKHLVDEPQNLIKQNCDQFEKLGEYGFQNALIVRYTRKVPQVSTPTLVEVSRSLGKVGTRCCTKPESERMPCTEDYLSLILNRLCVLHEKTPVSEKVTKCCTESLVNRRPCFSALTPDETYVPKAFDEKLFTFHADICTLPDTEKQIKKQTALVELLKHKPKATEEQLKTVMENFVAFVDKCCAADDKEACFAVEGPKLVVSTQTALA

Take `O=S(=O)(O)c1ccc(-c2nnc(-c3ccccn3)nc2-c2ccc(S(=O)(=O)O)o2)o1` [L1, 3-(2-pyridyl)-5,6-di(2-furyl)-1,2,4-triazine-5′,5″-disulfonic acid disodium salt]: the Kd was 32.4 µM.
